Assay: gradient 5% acetonitrile 3 min, to 50% in 2 min, to 85% in 15 min, held 3 min, 100 µL/min
Conditions: column: Zorbax Extend-C18 2.1 x 50 mm; eluents: water / acetonitrile, 0.1% formic acid
Method in brief: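 The mobile phases were water and acetonitrile, each with 0.1% formic acid, pumped at 100 μL/min through a Zorbax Extend-C18 column (2.1 × 50 mm, 1.8 μm). Pure standards were injected as mixtures of ~100 molecules and detected by a quadrupole time-of-flight mass spectrometer in positive and negative ionization mode. Retention time came from computationally picked adduct peaks, each inspected by hand.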

| Structure (SMILES) | RP-LC retention time [s] |
| --- | --- |
| O=C(NC1CCN(c2nnc3ccc(Cl)cn23)CC1)c1ccc(N2CCCC2=O)cc1 | 651 |
| O=C([C@@H]1C[C@H](F)CN1C(=O)NCCc1ccccc1)N1CCOCC1 | 608 |
| CC(C)C(=O)Nc1cnc(-c2cccc(Cl)c2)nc1 | 975 |
| Cn1nc(-c2nc(C3CC3)no2)c2c1CCN(C(=O)Nc1cccc(F)c1)C2 | 840 |
| CC(C)(C)c1noc(-c2ccnc(-n3cnc(C(=O)N4CCCCCC4)c3)c2)n1 | 998 |
| O=C(NCc1ccco1)C1CCN(c2nc3cccnc3s2)CC1 | 683 |
| O=C(NC1CCCCCC1)C1CCN(Cc2cc3ccccc3n2Cc2ccccc2Cl)CC1 | 899 |
| COCCCNC(=O)C1CCCN(c2ncc(-c3cccc(F)c3)cn2)C1 (stereo not given) | 863 |
| Cc1ccc(C)c(CN2C(=O)NC3(CCN(C(=O)c4ccsc4)CC3)C2=O)c1 | 827 |
| CCNC(=O)N(CC(=O)N1CCc2sccc2C1COc1ccc(C)cc1)CC1CC1 (stereo not given) | 935 |
| CC(C)CCNC(=O)C1CCN(c2cncnc2N2CCCCC2)CC1 | 674 |
| Cc1cccc(NC(=O)C(=O)NCCc2cccs2)n1 | 788 |
| Cn1c(C2CCN(C(=O)Nc3ccccc3F)CC2)cc(=O)n2nccc12 | 622 |
| O=C(CCC1CCN(S(=O)(=O)c2ccccc2)CC1)NC1CCCC1 | 852 |
| COc1ccc2c(c1)CC(NC(=O)N1CCN(Cc3ccccc3)CC1)CO2 (stereo not given) | 637 |
| CCOC(=O)C1=C(CN2CCC(c3ccc(C)cc3)C2)NC(=O)NC1c1cccc(OC)c1OC (stereo not given) | 713 |
| CN1[C@@H]2CC[C@H]1CC(OC(=O)C(CO)c1ccccc1)C2 (stereo not given in full) | 613 |
| COc1cccc(N2N=NC3C(=O)N(c4ccccc4)C(=O)C32)c1 (stereo not given) | 922 |
| COc1ccc2nc(C(=O)N3CCN(c4ccc(F)cc4)CC3)cn2n1 | 731 |
| COc1ccc(C(=O)Nc2ccc(N3CCN(C4CCCC4)C3=O)nc2)c(OC)c1 | 829 |
| O=C(Cc1nnc(-c2ccc3ncccc3c2)o1)N1CCN(C2CCCCC2)CC1 | 574 |
| COc1ccc(-c2nc(NCCCN3CCN(C)CC3)c3ccccc3n2)cc1 | 828 |
| COc1ccccc1NC(=O)CN1C(=O)NC2(CCC(C)CC2)C1=O (stereo not given) | 803 |

Further lines, results first:

| RP-LC retention time [s] | Structure (SMILES) |
| --- | --- |
| 978 | CC1CC(=O)N(CC(=O)Nc2cccc(Cl)c2)c2ccccc2S1 (stereo not given) |
| 846 | CCN1C(=O)c2cccnc2Sc2cc(CNC(=O)COc3cccc(C)c3)ccc21 |
| 834 | Cc1sc2ccn(C)c(=O)c2c1C(=O)NCc1ccccc1Br |
| 672 | COC[C@@H]1CN(C(=O)c2cc3cc(Cl)ccc3[nH]2)C[C@H]1C(N)=O |
| 950 | O=C(Cn1cccc(-c2nc(-c3ccc(F)cc3)no2)c1=O)Nc1cccc(Br)c1 |
| 1120 | Cc1cc(NC(=O)C(=O)c2c[nH]c3ccccc23)ccc1Br |
| 659 | O=C(Cn1c(N2CCCCC2)nc2ccccc2c1=O)NCc1cccc(Cl)c1 |
| 865 | Cc1ccc(CNC(=O)CCc2conc2-c2ccccc2)o1 |
| 867 | Cc1ccc(CNc2c(-c3ccc(Cl)cc3)nc3ncccn23)cc1 |
| 924 | Cn1nnc2ccc(-c3noc(COc4ccc(F)cc4)n3)cc21 |
| 1020 | CCCS(=O)(=O)c1nc2ccc(NS(=O)(=O)c3ccc(F)c(Cl)c3)cc2s1 |
| 747 | Cc1ccc(S(=O)(=O)N2CC(Cc3nncn3C3CCCC3)C2)cc1F |
| 763 | Cc1csc(-c2cc(S(=O)(=O)NCc3ccc(N(C)C)cc3)c(C)s2)n1 |
| 888 | CCOC(=O)c1ccc(NC(=O)Nc2cccs2)cc1 |
| 982 | COc1ccc(OC)c(-c2cn3ccn(-c4ccc(C)c(Cl)c4)c(=O)c3n2)c1 |
| 951 | CC(C(=O)Nc1cccc(F)c1)C1CCN(C(=O)Nc2ccc(Cl)cc2)CC1 (stereo not given) |
| 657 | CC(=O)Cc1nsc(NC(=O)c2cc(-c3cccc(C(F)(F)F)c3)oc2C)n1 |
| 1100 | Cc1cc2nn(CC(=O)Nc3cccc(Cl)c3)c(=O)n2c(Nc2ccccc2C)n1 |
| 720 | CCCC(=O)N1CCc2c([nH]c3ccccc23)C1c1ccc(OC)cc1 (stereo not given) |
| 1060 | CCCn1c(=O)c2cc(C(=O)NCCCc3ccccc3)nn2c2ccccc21 |
| 788 | COC(=O)Nc1ccc(S(=O)(=O)NCc2ccc(C)cc2)cc1 |
| 780 | CCn1cnc2ccc(-c3noc(-c4ccc(OC)c(F)c4)n3)cc21 |

— the METLIN SMRT retention time set (Domingo-Almenara et al. 2019)
